In assay [1] the target is T1, rat brush border membrane vesicles (Rattus norvegicus, UniProt Q6T3U3).
T1 construct: from tissue; host or cells: rat (male Sprague-Dawley) small-intestinal mucosa, brush border membrane vesicles
As to the kind of experiment: Binding assay with rat brush border membrane vesicles. The text has this: Glass fiber filters (GF/C) were obtained from Whatman.
Rate constants for binding and dissociation.
(§1) Analog structures are defined in Table 12.

Assay [2] deals with T2, rhesus brush border membrane vesicles (Macaca mulatta, UniProt A0MJA5).
T2 sequence (A0MJA5 1-1332): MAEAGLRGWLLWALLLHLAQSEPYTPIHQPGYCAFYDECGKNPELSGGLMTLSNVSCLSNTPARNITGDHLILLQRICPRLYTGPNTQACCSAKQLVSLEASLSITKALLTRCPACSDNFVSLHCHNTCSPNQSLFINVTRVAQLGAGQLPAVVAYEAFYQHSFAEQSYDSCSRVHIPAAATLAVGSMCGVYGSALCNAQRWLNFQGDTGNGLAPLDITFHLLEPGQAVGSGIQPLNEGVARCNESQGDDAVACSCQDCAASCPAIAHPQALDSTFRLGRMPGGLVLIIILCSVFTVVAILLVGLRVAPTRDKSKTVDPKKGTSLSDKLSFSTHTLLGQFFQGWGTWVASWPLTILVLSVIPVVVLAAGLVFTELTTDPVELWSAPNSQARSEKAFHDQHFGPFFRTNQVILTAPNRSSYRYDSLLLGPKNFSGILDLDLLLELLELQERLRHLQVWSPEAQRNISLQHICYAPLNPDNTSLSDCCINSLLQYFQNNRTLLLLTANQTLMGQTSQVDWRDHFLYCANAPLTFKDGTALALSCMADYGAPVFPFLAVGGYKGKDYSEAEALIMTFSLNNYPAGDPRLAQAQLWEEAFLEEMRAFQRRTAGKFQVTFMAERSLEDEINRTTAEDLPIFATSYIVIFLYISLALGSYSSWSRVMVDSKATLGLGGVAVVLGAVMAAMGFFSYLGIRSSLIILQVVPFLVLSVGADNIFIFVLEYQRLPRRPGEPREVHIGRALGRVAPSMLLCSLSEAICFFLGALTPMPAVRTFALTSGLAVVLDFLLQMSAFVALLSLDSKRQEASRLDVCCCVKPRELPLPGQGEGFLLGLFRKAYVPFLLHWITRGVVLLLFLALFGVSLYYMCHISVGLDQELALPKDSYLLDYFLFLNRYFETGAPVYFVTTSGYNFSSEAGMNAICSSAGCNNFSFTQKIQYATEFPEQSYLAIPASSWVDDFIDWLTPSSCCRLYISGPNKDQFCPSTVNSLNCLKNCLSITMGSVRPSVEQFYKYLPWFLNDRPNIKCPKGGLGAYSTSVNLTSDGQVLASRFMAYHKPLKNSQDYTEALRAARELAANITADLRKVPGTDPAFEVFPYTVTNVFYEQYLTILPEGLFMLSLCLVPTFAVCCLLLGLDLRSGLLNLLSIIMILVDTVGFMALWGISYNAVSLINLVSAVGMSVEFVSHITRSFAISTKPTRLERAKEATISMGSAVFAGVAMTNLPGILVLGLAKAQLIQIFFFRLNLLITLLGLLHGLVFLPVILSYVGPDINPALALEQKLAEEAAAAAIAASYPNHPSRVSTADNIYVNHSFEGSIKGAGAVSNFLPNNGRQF
As to the kind of experiment: Binding assay with rhesus brush border membrane vesicles.
Experimental: The intestines from freshly sacrificed animals were cut into segments, perfused with ice-cold saline buffer (Buffer A: 26 mM NaHCO3, 0.96 mM NaH2PO4, 5 mM HEPES, 5.5 mM glucose, 117 mM NaCl, 5.4 mM KCl, pH=7.4), placed on cold glass plates, opened longitudinally, and the mucosa scraped with glass microscope slips. This mucosa could be used fresh or frozen with identical results. To prepare the membranes, the mucosal scrapings were resuspended in 20 volumes of cold buffer consisting of 300 mM D-mannitol, 5 mM EGTA, 12 mM Tris, pH 7.4 with HCl, and containing 0.1 mM PMSF and a 1% dilution of a protease inhibitor cocktail (set 1, Calbiochem). They were homogenized using a Polytron at medium speed on ice until inspection with a microscope indicated complete cell lysis. Then, solid MgCl2 was added slowly with stirring to a final concentration of 10 mM, and the solution was kept stirring on ice for 15 min. Cellular debris was removed by centrifugation for 15 min at 3,000 g, and the membranes were recovered by centrifugation for 60 min at 48,000 g. The membranes were further rinsed by re-suspension in a buffer containing 50 mM D-mannitol, 5 mM EGTA, and 2 mM Tris at pH 7.40, and centrifugation for 60 min at 48,000 g. The final pellet was resuspended in 120 mM NaCl and 20 mM Tris at pH 7.40 to a concentration of ˜10-20 mg protein/ml, aliquoted, frozen in liquid nitrogen, and stored at −80 C. The activity was stable indefinitely and could be freeze-thawed with minimal loss of activity.
Binding assay. Assays were conducted in 12×75 mm glass test tubes and total volume 20-100 ul. In general, frozen membranes were diluted in buffer A or buffer A containing 0.03% taurocholate and 0.05% digitonin to a final concentration of 0.02 to 5 mg/ml. […] Competing ligands were likewise added as DMSO solutions to give a total 2-10% organic solvent content. […] At least 2 components of buffer A, the bicarbonate and phosphate salts, were later found to be inconsequential and were routinely omitted.
Bound ligand was quantified by single-tube vacuum filtration using GF/C glass fiber filters. […] Filtration was accomplished by adding 2.5 ml of ice cold buffer (120 mM NaCl, 0.1% sodium cholate, and 20 mM MES at pH 6.70) to the assay tube, pouring the mixture through the filter, and then rinsing the tube and filter twice more with another 2×2.5 ml buffer. The filters were counted in 7 ml vials using Packard DM liquid scintillation fluid.
Data analysis. Data from saturation experiments were subjected to a Scatchard analysis, and linear regression was performed to yield the equilibrium dissociation constant (Kd) and maximum receptor concentration (Bmax). […] Data from competition experiments were analyzed and IC50 values determined from Hill plots of the binding data.

A further assay concerns the target rat NPC1L1 (Rattus norvegicus, UniProt Q6T3U3). As to the kind of experiment: Binding to membranes of HEK-293 cells expressing recombinant rat NPC1L1. On the set-up: expressed in transfected cells; host or cells: HEK-293 cells (ATCC), transient, pCR3.1; membranes. The following applies: 0.03% sodium taurocholate and 0.05% digitonin; 1.25 mg protein/ml, 100 nM 1. As to the method: (§2) Transient expression of NPC1L1. Plasmid pCR3.1 expressing rat NPC1L1 (Genbank AY437867) or human NPC1L1 (Genbank AY437865) were prepared using standard molecular biology protocols. HEK-293 cells (ATCC) were seeded at 10×10^6 cells per T-225 flask (Corning) in DMEM containing 10% fetal calf serum, 4.5 g/L D-glucose and L-glutamine, 18 hours prior to transfection. They were transiently transfected with 25 μg of DNA using Fugene transfection reagent (Roche Biochemical) at a ratio of 6:1 Fugene:DNA. Following transfection, the cells were incubated at 37° C. and 5% CO2 for 48 hours, and then harvested using PBS based cell dissociation buffer (Gibco), pelleted at 500×g, snap frozen on dry ice, and stored at −80° C.
(§3) Membrane preparation from HEK-293 cells. Membranes were prepared by resuspending the frozen cell pellets in ten volumes of 20 mM HEPES/Tris buffer at pH 7.40 containing 8% sucrose, and sonicating the suspensions with a probe sonicator on ice until most of the cells were lysed. To isolate the membranes, the sonicates were centrifuged at 1600×g for 10 min to remove cell debris, and then the supernatants were centrifuged at 125,000×g for 1 hour to recover the membranes. These membranes were resuspended in 20 mM HEPES/Tris buffer at pH 7.40 containing 160 mM NaCl and 5% glycerol, and stored at 10-20 mg/ml protein at −80° C.
as §1

Another assay addresses T3, human NPC1L1 (Homo sapiens, UniProt Q9UHC9, G1187D/M616T/T1073A).
T3 sequence (Q9UHC9 22-1332 isoform Q9UHC9-2 M616T/T1046A/G1160D limits assumed): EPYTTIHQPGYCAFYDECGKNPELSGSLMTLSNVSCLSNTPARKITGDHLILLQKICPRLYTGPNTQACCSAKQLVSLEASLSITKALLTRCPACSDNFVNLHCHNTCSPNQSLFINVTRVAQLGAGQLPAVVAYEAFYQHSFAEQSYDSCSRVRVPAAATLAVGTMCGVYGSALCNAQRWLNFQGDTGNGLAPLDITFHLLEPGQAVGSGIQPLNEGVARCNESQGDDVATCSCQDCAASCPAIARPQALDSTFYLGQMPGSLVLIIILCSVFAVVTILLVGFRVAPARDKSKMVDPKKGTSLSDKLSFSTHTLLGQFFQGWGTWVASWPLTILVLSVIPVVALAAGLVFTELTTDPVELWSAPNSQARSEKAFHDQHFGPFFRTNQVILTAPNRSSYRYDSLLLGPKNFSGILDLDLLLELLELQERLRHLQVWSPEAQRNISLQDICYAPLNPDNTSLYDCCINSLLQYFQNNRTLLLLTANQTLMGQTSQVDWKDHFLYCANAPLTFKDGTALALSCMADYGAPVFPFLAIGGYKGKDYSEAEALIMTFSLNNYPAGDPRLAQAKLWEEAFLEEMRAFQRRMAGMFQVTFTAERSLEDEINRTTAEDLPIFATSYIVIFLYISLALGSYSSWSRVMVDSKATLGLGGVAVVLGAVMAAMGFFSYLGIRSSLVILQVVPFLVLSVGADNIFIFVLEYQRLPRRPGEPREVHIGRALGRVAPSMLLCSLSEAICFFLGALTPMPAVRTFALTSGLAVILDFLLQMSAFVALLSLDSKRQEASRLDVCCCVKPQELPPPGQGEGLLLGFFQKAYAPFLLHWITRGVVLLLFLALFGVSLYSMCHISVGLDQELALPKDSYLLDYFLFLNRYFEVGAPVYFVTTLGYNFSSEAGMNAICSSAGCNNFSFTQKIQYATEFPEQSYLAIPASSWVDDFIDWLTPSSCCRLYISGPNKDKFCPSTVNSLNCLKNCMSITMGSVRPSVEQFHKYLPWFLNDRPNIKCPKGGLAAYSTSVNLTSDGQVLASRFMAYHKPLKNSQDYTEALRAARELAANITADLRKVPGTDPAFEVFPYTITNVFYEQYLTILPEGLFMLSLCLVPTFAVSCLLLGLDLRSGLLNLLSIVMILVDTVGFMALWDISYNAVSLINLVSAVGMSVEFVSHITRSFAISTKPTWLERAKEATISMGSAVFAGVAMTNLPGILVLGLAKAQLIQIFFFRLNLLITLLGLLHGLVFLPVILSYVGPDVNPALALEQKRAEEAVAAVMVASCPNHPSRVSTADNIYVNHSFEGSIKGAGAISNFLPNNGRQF
As to the kind of experiment: Binding to membranes of HEK-293 cells expressing recombinant human NPC1L1. On the set-up: expressed in transfected cells; host or cells: HEK-293 cells (ATCC), transient, pCR3.1; membranes. The following applies: 0.03% sodium taurocholate and 0.05% digitonin; 1.25 mg protein/ml, 100 nM 1. As for the experimental part: as §2, §3, §1

On to `O=C(O)[C@H]1O[C@@H](Oc2ccc([C@@H]3[C@@H](CC[C@H](O)c4ccc(F)cc4)C(=O)N3c3ccc(F)cc3)c(O)c2)[C@H](O)[C@@H](O)[C@@H]1O` [Compound 7], for which the inhibition constant (Ki) is 0.28 µM in assay [1] (0.03% sodium taurocholate and 0.05% digitonin, 1.25 mg protein/ml, 100 nM 1, read-out: Rat BBM Ki); 0.06 µM in assay [2]; 0.36 µM at rat NPC1L1; 0.21 µM on human NPC1L1. Moreover, the IC50 in assay [1] (rat brush border membrane vesicles, read-out: RAT IC50 (nM), inhibition of ^3H-EZE-gluc binding) turned out to be 252 nM.

By Ki is commonly meant a dissociation constant, usually derived from enzyme kinetics or from competition with a known ligand. What is called IC50 is the concentration needed to halve the response being measured.

(Values after patent US7901893B2, “NPC1L1 (NPC3) and methods of identifying ligands thereof” (Merck Sharp & Dohme Corp., priority 2004, dated 2011).)
